For 38 compounds, inhibition and Ki results are on record in ChEMBL document CHEMBL4364348, “Divalent cannabinoid-1 receptor ligands: A linker attachment point survey of SR141716A for development of high-affinity CB1R molecular probes” (Bioorg Med Chem Lett, 2019).

Assay [1] concerns the target T1, Cannabinoid receptor 1 (Homo sapiens, UniProt P21554). As to the kind of experiment: Displacement of [3H]CP55940 from human CB1R in HEK293 cell membranes at 10 uM after 60 mins liquid scintillation analysis relative to control. In general terms: Loss of bound radioactivity is the signal in a displacement assay; it reports binding, not function.
The target of assay [2] is T1, Cannabinoid receptor 1. The assay is described as follows: Displacement of [3H]CP55940 from human CB1R in HEK293 cell membranes after 60 mins liquid scintillation analysis.
The target in assay [3] is D(2) dopamine receptor (Homo sapiens, UniProt P14416). The assay is described as follows: Binding affinity to human D2R.
Chain of D(2) dopamine receptor (P14416 whole entry): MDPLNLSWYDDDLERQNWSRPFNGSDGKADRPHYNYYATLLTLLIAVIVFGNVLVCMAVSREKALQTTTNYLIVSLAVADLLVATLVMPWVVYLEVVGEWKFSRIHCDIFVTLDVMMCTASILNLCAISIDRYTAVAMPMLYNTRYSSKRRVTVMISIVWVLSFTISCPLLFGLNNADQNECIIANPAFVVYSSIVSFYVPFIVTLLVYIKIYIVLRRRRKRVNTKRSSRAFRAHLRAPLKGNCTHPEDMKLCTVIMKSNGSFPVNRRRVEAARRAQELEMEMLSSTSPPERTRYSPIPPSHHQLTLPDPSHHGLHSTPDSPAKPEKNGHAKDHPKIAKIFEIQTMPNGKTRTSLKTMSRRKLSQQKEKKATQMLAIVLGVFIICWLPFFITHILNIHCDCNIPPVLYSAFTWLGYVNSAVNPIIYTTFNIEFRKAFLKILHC

T1 sequence (P21554 whole entry): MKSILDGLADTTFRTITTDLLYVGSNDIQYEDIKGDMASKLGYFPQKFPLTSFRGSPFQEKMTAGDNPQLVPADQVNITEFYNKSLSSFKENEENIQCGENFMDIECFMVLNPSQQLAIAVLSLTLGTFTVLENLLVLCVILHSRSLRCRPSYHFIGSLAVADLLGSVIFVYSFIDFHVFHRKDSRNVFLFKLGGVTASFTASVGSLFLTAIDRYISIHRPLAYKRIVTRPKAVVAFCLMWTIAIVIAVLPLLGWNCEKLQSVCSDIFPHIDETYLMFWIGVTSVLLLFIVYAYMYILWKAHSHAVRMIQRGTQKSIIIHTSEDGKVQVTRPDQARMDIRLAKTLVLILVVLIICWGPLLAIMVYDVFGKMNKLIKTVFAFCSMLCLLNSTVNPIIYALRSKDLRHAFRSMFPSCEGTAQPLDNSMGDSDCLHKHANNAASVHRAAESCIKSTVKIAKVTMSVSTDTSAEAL

Turning to `Cc1c(C(=O)NN2CCCCC2)nn(-c2ccc(Cl)cc2Cl)c1-c1ccc(-c2ccc(C(=O)O)cc2)cc1`, in assay [1], the inhibition turned out to be 66%.
Still for that read-out and setting: for `Cc1c(C(=O)NCCCCCCCCCCC(=O)O)nn(-c2ccc(Cl)cc2Cl)c1-c1ccc(Cl)cc1` the value was 43%.
`COC(=O)CCCCCCCCCCNC(=O)c1ccc(-c2ccc(-c3c(C)c(C(=O)NN4CCCCC4)nn3-c3ccc(Cl)cc3Cl)cc2)cc1` displayed an inhibition in assay [1] of 0%.
In assay [2], `CCOC(=O)c1ccc(CNC(=O)c2nn(-c3ccc(Cl)cc3Cl)c(-c3ccc(Cl)cc3)c2C)cc1` had a Ki of 8.2 nM.
In assay [3], `CCCN(CCc1ccc(NC(=O)CCC(=O)NCCOCCOCC(=O)NCCOCCOCC(=O)NCCCC[C@H](NC(C)=O)C(=O)NCCCC[C@H](NC(C)=O)C(=O)NCCCCCCNC(=O)c2nn(-c3ccc(Cl)cc3Cl)c(-c3ccc(Cl)cc3)c2C)cc1)C1CCc2c(O)cccc2C1` (some centres undefined) showed a Ki of 1.1 nM. Moreover, in assay [1], the inhibition came to 33%.
For `Cc1c(C(=O)NCCCCCCNC(=O)CCCCCNC(=O)c2ccc(CNC(=O)CCCCCNC(=O)CCCCCNC(=O)c3ccc(CNC(=O)CCCCCNC(=O)c4nn(-c5ccc(Cl)cc5Cl)c(-c5ccc(Cl)cc5)c4C)cc3)cc2)nn(-c2ccc(Cl)cc2Cl)c1-c1ccc(Cl)cc1`, the inhibition in assay [1] worked out at 0%.
Still for that read-out and setting: for `CC(=O)NCCOCCOCC(=O)NCCCC[C@H](NC(C)=O)C(=O)NCCCC[C@H](NC(C)=O)C(=O)NCCCCCCNC(=O)c1nn(-c2ccc(Cl)cc2Cl)c(-c2ccc(Cl)cc2)c1C` the value was 37%.
Regarding `CCCN(CCc1ccc(NC(=O)CCC(=O)NCCCCCC(=O)NCc2ccc(C(=O)NCCCCCC(=O)NCCCCCC(=O)NCc3ccc(C(=O)NCCCCCC(=O)NCCCCCCNC(=O)c4nn(-c5ccc(Cl)cc5Cl)c(-c5ccc(Cl)cc5)c4C)cc3)cc2)cc1)C1CCc2c(O)cccc2C1` (centres undefined), the Ki in assay [3] turned out to be 4.2 nM. Also, the inhibition in assay [1] came out at 0%.
`Cc1c(C(=O)NN2CCCCC2)nn(-c2ccc(Cl)cc2Cl)c1-c1ccc(C#CCCOC(=O)CCCCCNC(=S)Nc2ccc3c(c2)C(=O)OC32c3ccc(O)cc3Oc3cc(O)ccc32)cc1` came in with a Ki in assay [2] of 260 nM.
Take `Cc1c(C(=O)NN2CCCCC2)nn(CCCCCC(=O)NCCCCCC(=O)O)c1-c1ccc(Cl)cc1`: in assay [1], the inhibition is 13%.
Take `CCCN(CCc1ccc(NC(=O)CCC(=O)NCCOCCOCC(=O)NCCCC[C@H](NC(C)=O)C(=O)NCCCC[C@H](NC(C)=O)C(=O)NCCCCCCNC(=O)c2nn(-c3ccc(Cl)cc3Cl)c(-c3ccc(Cl)cc3)c2C)cc1)C1CCc2c(O)cccc2C1` (some centres undefined): the Ki in assay [3] was 2.4 nM. In addition, in assay [1], the inhibition worked out at 44%.
Take `CCCN(CCc1ccc(NC(=O)CCC(=O)NCCCCCC(=O)NCc2ccc(C(=O)NCCCCCC(=O)NCCCCCCNC(=O)c3nn(-c4ccc(Cl)cc4Cl)c(-c4ccc(Cl)cc4)c3C)cc2)cc1)C1CCc2c(O)cccc2C1` (centres undefined): in assay [3], the affinity corresponds to a Ki of 2.2 nM. In addition, in assay [1], the inhibition came out at 33%.
With `COC(=O)CCCCCCCCCCNC(=O)CCCCCn1nc(C(=O)NN2CCCCC2)c(C)c1-c1ccc(Cl)cc1`, the inhibition in assay [1] stood at 13%.
As for `CC(=O)NCCCC[C@H](NC(C)=O)C(=O)NCCCC[C@H](NC(C)=O)C(=O)NCCCCCCNC(=O)c1nn(-c2ccc(Cl)cc2Cl)c(-c2ccc(Cl)cc2)c1C`, the inhibition in assay [1] turned out to be 41%.
Compound `Cc1c(C(=O)NN2CCCCC2)nn(-c2ccc(Cl)cc2Cl)c1-c1ccc(C#CCCO)cc1` had a Ki in assay [2] of 180 nM. In assay [1], this compound came in with an inhibition of 98%.
In assay [1], `COC(=O)CCCCCNC(=O)c1ccc(-c2ccc(-c3c(C)c(C(=O)NN4CCCCC4)nn3-c3ccc(Cl)cc3Cl)cc2)cc1` returned an inhibition of 49%.
Turning to `Cc1c(C(=O)NN2CCCCC2)nn(CCCCCC(=O)OC(C)(C)C)c1-c1ccc(Cl)cc1`, the inhibition in assay [1] is 37%.
Take `CC(=O)OCCC#Cc1ccc(-c2c(C)c(C(=O)NN3CCCCC3)nn2-c2ccc(Cl)cc2Cl)cc1`: affinity in assay [2] was put at a Ki of 11 nM. For the same compound, in assay [1], the inhibition was 100%.
`CC(=O)N[C@@H](CCCCNC(=O)COCCOCCNC(=O)c1nn(-c2ccc(Cl)cc2Cl)c(-c2ccc(Cl)cc2)c1C)C(=O)NCCCC[C@H](NC(C)=O)C(=O)NCCCCCCNC(=O)c1nn(-c2ccc(Cl)cc2Cl)c(-c2ccc(Cl)cc2)c1C` came in with an inhibition in assay [1] of 23%.
The same measure, in the same setting: then `COC(=O)CCCCCCCCCCNC(=O)c1nn(-c2ccc(Cl)cc2Cl)c(-c2ccc(Cl)cc2)c1C`, with 5%.
For the compound `COC(=O)c1ccc(-c2ccc(-c3c(C)c(C(=O)NN4CCCCC4)nn3-c3ccc(Cl)cc3Cl)cc2)cc1`, in assay [2], the Ki was determined as 131 nM.
`COC(=O)CCCCCNC(=O)CCCCCn1nc(C(=O)NN2CCCCC2)c(C)c1-c1ccc(Cl)cc1` yielded an inhibition in assay [1] of 33%.
`Cc1c(C(=O)NN2CCCCC2)nn(-c2ccc(Cl)cc2Cl)c1-c1ccc(C#CCCOCCCCCC(=O)OC(C)(C)C)cc1` gave a Ki in assay [2] of 45 nM. In assay [1], this compound returned an inhibition of 97%.
In assay [2], `COC(=O)CCCCCNC(=O)c1nn(-c2ccc(Cl)cc2Cl)c(-c2ccc(Cl)cc2)c1C` returned a Ki of 13 nM.
Compound `CC(=O)N[C@@H](CCCCNC(=O)c1nn(-c2ccc(Cl)cc2Cl)c(-c2ccc(Cl)cc2)c1C)C(=O)NCCCC[C@H](NC(C)=O)C(=O)NCCCCCCNC(=O)c1nn(-c2ccc(Cl)cc2Cl)c(-c2ccc(Cl)cc2)c1C` displayed an inhibition in assay [1] of 11%.
Same read-out and setting: then `CNC(=O)c1ccc(-c2ccc(-c3c(C)c(C(=O)NN4CCCCC4)nn3-c3ccc(Cl)cc3Cl)cc2)cc1`, with 55%; and `CC(=O)NCCCCCC(=O)NCc1ccc(C(=O)NCCCCCC(=O)NCCCCCCNC(=O)c2nn(-c3ccc(Cl)cc3Cl)c(-c3ccc(Cl)cc3)c2C)cc1`, with 23%.
`Cc1c(C(=O)NN2CCCCC2)nn(-c2ccc(Cl)cc2Cl)c1-c1ccc(C#CCCOC(=O)CCCCCCCCCCNC(=S)Nc2ccc3c(c2)C(=O)OC32c3ccc(O)cc3Oc3cc(O)ccc32)cc1` yielded a Ki in assay [2] of 2110 nM.
Take `CNC(=O)CCCCCn1nc(C(=O)NN2CCCCC2)c(C)c1-c1ccc(Cl)cc1`: in assay [1], the inhibition was 3%.
In turn, `CCCN(CCc1ccc(NC(=O)CCC(=O)NCCCC[C@H](NC(C)=O)C(=O)NCCCC[C@H](NC(C)=O)C(=O)NCCCCCCNC(=O)c2nn(-c3ccc(Cl)cc3Cl)c(-c3ccc(Cl)cc3)c2C)cc1)C1CCc2c(O)cccc2C1` (some centres undefined) had a Ki in assay [3] of 0.84 nM. This compound also came in with an inhibition in assay [1] of 62%.
As to `CC(=O)NCCOCCOCC(=O)NCCOCCOCC(=O)NCCCC[C@H](NC(C)=O)C(=O)NCCCC[C@H](NC(C)=O)C(=O)NCCCCCCNC(=O)c1nn(-c2ccc(Cl)cc2Cl)c(-c2ccc(Cl)cc2)c1C`, in assay [1], the inhibition was determined as 23%.
Take `Cc1c(C(=O)NCCCCCCNC(=O)CCCCCNC(=O)c2ccc(CNC(=O)CCCCCNC(=O)c3nn(-c4ccc(Cl)cc4Cl)c(-c4ccc(Cl)cc4)c3C)cc2)nn(-c2ccc(Cl)cc2Cl)c1-c1ccc(Cl)cc1`: the inhibition in assay [1] came to 29%.
Still for that read-out and setting: then `CC(=O)NCCCCCC(=O)NCc1ccc(C(=O)NCCCCCC(=O)NCCCCCC(=O)NCc2ccc(C(=O)NCCCCCC(=O)NCCCCCCNC(=O)c3nn(-c4ccc(Cl)cc4Cl)c(-c4ccc(Cl)cc4)c3C)cc2)cc1`, with 0%.
For `Cc1c(C(=O)NN2CCCCC2)nn(-c2ccc(Cl)cc2Cl)c1-c1ccc(C#CCCOC(=O)CCCCCCCCCCN)cc1`, in assay [2], the affinity corresponds to a Ki of 97 nM. The compound further returned an inhibition in assay [1] of 87%.
In assay [1], `CC(=O)N[C@@H](CCCCNC(=O)COCCOCCNC(=O)COCCOCCNC(=O)c1nn(-c2ccc(Cl)cc2Cl)c(-c2ccc(Cl)cc2)c1C)C(=O)NCCCC[C@H](NC(C)=O)C(=O)NCCCCCCNC(=O)c1nn(-c2ccc(Cl)cc2Cl)c(-c2ccc(Cl)cc2)c1C` displayed an inhibition of 29%.
The compound `Cc1c(C(=O)NN2CCCCC2)nn(-c2ccc(Cl)cc2Cl)c1-c1ccc(C#CCCOC(=O)CCCCCNC(=O)OC(C)(C)C)cc1` had a Ki in assay [2] of 106 nM. The compound further had an inhibition in assay [1] of 79%.
Take `Cc1c(C(=O)NN2CCCCC2)nn(-c2ccc(Cl)cc2Cl)c1-c1ccc(C#CCCOC(=O)CCCCCN)cc1`: the affinity in assay [2], expressed as Ki, was 1810 nM. The same compound came in with an inhibition in assay [1] of 59%.
`Cc1c(C(=O)NN2CCCCC2)nn(CCCCCC(=O)O)c1-c1ccc(Cl)cc1` registered an inhibition in assay [1] of 10%.

As a reminder, the inhibition is the drop in the measured response relative to a control, in per cent. One may read the Ki as a dissociation constant, usually derived from enzyme kinetics or from competition with a known ligand. A low value points to a stronger hold on the target.
